Laboratory results reported in ChEMBL document CHEMBL1138078, “Antitumor activity of JS-K [O2-(2,4-dinitrophenyl) 1-[(4-ethoxycarbonyl)piperazin-1-yl]diazen-1-ium-1,2-diolate] and related O2-aryl diazeniumdiolates in vitro and in vivo” (J Med Chem, 2006).

Tests used:
HL-60 = assay: Antiproliferative activity against human HL60 cell line; format: functional, cell-based
786-0 = assay: Antiproliferative activity against human 786-0 cell line at 100 uM; format: functional
[1] = system: Panel NCI-51 (51 carcinoma cell lines); assay: Antiproliferative activity against human NCI51 cell line; format: functional
CAKI-1 = assay: Antiproliferative activity against human CAKI1 cell line at 100 uM; format: functional
TK-10 = assay: Antiproliferative activity against human TK10 cell line at 100 uM; format: functional
JM1 = assay: Antiproliferative activity against JM1 cell line implanted in Fischer rat liver assessed as decrease in tumor weight; format: functional, cell-based

IC50 (HL-60; Homo sapiens, HL-60)	SMILES	further results
96 µM	CCN(CC)/[N+]([O-])=N\Oc1ccc([N+](=O)[O-])cc1C(F)(F)F	
> 100 µM	CN(C)/[N+]([O-])=N\Oc1cc(O)c([N+](=O)[O-])cc1[N+](=O)[O-]	
> 100 µM	COc1ccc(N(C)c2cc(O/N=[N+](/[O-])N(C)C)c([N+](=O)[O-])cc2[N+](=O)[O-])cc1	
> 100 µM	CCN(CC)/[N+]([O-])=N\Oc1ccnc(SC)n1	
1 µM	CCN(CC)/[N+]([O-])=N/Oc1cc(O/N=[N+](/[O-])N(CC)CC)c([N+](=O)[O-])cc1[N+](=O)[O-]	
3.5 µM	CN(C)/[N+]([O-])=N\Oc1cc(F)c([N+](=O)[O-])cc1[N+](=O)[O-]	
0.8 µM	CCOC(=O)N1CCN(/[N+]([O-])=N/Oc2cc(O/N=[N+](\[O-])N3CCN(C(=O)OC)CC3)c([N+](=O)[O-])cc2[N+](=O)[O-])CC1	
10.1 µM	CN(C)/[N+]([O-])=N/Oc1cc(Nc2cccc(C(=O)O)c2)c([N+](=O)[O-])cc1[N+](=O)[O-]	
8.6 µM	CCOC(=O)N1CCNCC1 [N-(ETHOXYCARBONYL)PIPERAZINE]	
3.6 µM	O=[N+]([O-])c1ccc(O/N=[N+](\[O-])N2CCN(c3ncccn3)CC2)c([N+](=O)[O-])c1	
1.5 µM	O=[N+]([O-])c1ccc(O/N=[N+](/[O-])N2CCN(c3ccccc3)CC2)c([N+](=O)[O-])c1	
8.1 µM	CC(C)(C)OC(=O)N1CCN(/[N+]([O-])=N\Oc2ccc([N+](=O)[O-])cc2[N+](=O)[O-])CC1	
> 100 µM	CCN(CC)/[N+]([O-])=N\Oc1ccccc1[N+](=O)[O-]	
1 µM	CCOC(=O)N1CCN(/[N+]([O-])=N/Oc2cc(F)c([N+](=O)[O-])cc2[N+](=O)[O-])CC1	
> 100 µM	O=[N+]([O-])c1cc(C(F)(F)F)ccc1O/N=[N+](\[O-])N1CCN(c2ccccc2)CC1	
12 µM	CN(c1cccc(C(=O)O)c1)c1cc(O/N=[N+](/[O-])N(C)C)c([N+](=O)[O-])cc1[N+](=O)[O-]	
8.8 µM	CC(=O)NCC(=O)N1CCN(/[N+]([O-])=N\Oc2ccc([N+](=O)[O-])cc2[N+](=O)[O-])CC1	
7.3 µM	O=C(c1cccnc1)N1CCN(/[N+]([O-])=N\Oc2ccc([N+](=O)[O-])cc2[N+](=O)[O-])CC1	
83 µM	C1CNCCN1 [PIPERAZINE]	
9.1 µM	CN(C)/[N+]([O-])=N\Oc1cc(Nc2ccc(C(=O)O)cc2)c([N+](=O)[O-])cc1[N+](=O)[O-]	

IC50 (HL-60; Homo sapiens, HL-60)	SMILES	further results
27 µM	O=C(ON1C(=O)CCC1=O)N1CCN(/[N+]([O-])=N\Oc2ccc([N+](=O)[O-])cc2[N+](=O)[O-])CC1	
5 µM	O=[N+]([O-])c1ccc(O/N=[N+](/[O-])N2CCNCC2)c([N+](=O)[O-])c1	
3.9 µM	CC(=O)N1CCN(/[N+]([O-])=N\Oc2ccc([N+](=O)[O-])cc2[N+](=O)[O-])CC1	
7.4 µM	O=[N+]([O-])c1ccc(O/N=[N+](\[O-])N2CCCC2)c([N+](=O)[O-])c1	
4 µM	CCOC(=O)N1CCN(/[N+]([O-])=N\O)CC1	
3.7 µM	CC(=O)Oc1ccccc1C(=O)N1CCN(/[N+]([O-])=N\Oc2ccc([N+](=O)[O-])cc2[N+](=O)[O-])CC1	
8 µM	O=[N+]([O-])c1ccc(O/N=[N+](/[O-])N2CCN(c3ccccc3)CC2)nc1	
> 100 µM	CCN(CC)/[N+]([O-])=N\Oc1ccc([N+](=O)[O-])cc1	
	O=[N+]([O-])c1ccc(Cl)c([N+](=O)[O-])c1 [DINITROCHLOROBENZENE]	IC50 (HL-60; hl-60): 1.4 µM
5.9 µM	NC(=O)C1CCN(/[N+]([O-])=N/Oc2ccc([N+](=O)[O-])cc2[N+](=O)[O-])CC1	
2.4 µM	CN(C)/[N+]([O-])=N\Oc1ccc([N+](=O)[O-])cc1[N+](=O)[O-]	
6.7 µM	CN1CCN(/[N+]([O-])=N\Oc2ccc([N+](=O)[O-])cc2[N+](=O)[O-])CC1	
7.3 µM	CCN(CC)C(=O)N1CCN(/[N+]([O-])=N\Oc2ccc([N+](=O)[O-])cc2[N+](=O)[O-])CC1	
4.4 µM	NC(=O)C1CCCN(/[N+]([O-])=N/Oc2ccc([N+](=O)[O-])cc2[N+](=O)[O-])C1 (stereo not given)	
> 100 µM	CN(C)/[N+]([O-])=N\Oc1ccc([N+](=O)[O-])cn1	
5.2 µM	CN(C)S(=O)(=O)N1CCN(/[N+]([O-])=N\Oc2ccc([N+](=O)[O-])cc2[N+](=O)[O-])CC1	
3.2 µM	CC(C)Cc1ccc(C(C)C(=O)N2CCN(/[N+]([O-])=N\Oc3ccc([N+](=O)[O-])cc3[N+](=O)[O-])CC2)cc1 (stereo not given)	
70 µM	CCOC(=O)N1CCN(/[N+]([O-])=N/Oc2ccnc(Cl)n2)CC1	
2.2 µM	CCN(CC)/[N+]([O-])=N/Oc1ccc([N+](=O)[O-])cc1[N+](=O)[O-]	

SMILES	IC50 (HL-60; Homo sapiens, HL-60)	further results
O=[N+]([O-])c1ccc(O)c([N+](=O)[O-])c1 [2,4-DINITROPHENOL]	98 µM	
CCCCOC(=O)N1CCN(/[N+]([O-])=N\Oc2ccc([N+](=O)[O-])cc2[N+](=O)[O-])CC1	3.5 µM	Activity (786-0): 100%; TGI (HL-60; Homo sapiens, HL-60): 57.5 µM; GI50 [1]: 6.31 µM; LC50 [1]: 63.1 µM; TGI [1]: 23.4 µM; Activity (CAKI-1): 100%; Activity (TK-10): 100%
CNc1ccc(C(=O)Oc2cc(O/N=[N+](/[O-])N(C)C)c([N+](=O)[O-])cc2[N+](=O)[O-])cc1	6.3 µM	
CCCOC(=O)N1CCN(/[N+]([O-])=N\Oc2ccc([N+](=O)[O-])cc2[N+](=O)[O-])CC1	3.7 µM	Activity (786-0): 100%; TGI (HL-60; Homo sapiens, HL-60): 8.1 µM; GI50 [1]: 2.04 µM; LC50 [1]: 40.7 µM; TGI [1]: 10.2 µM; Activity (CAKI-1): 100%; Activity (TK-10): 100%
N[C@@H](CCC(=O)N[C@H](CSc1ccc([N+](=O)[O-])cc1[N+](=O)[O-])C(=O)NCC(=O)O)C(=O)O	8.4 µM	
CCOC(=O)N1CCN(/[N+]([O-])=N/Oc2ccc([N+](=O)[O-])cc2[N+](=O)[O-])CC1	0.5 µM	Activity (JM1): Dose-dependent effect; GI50 [1]: 1.32 µM; TGI [1]: 6.61 µM
O=NO [SODIUM NITRITE]	94 µM	
O=C(OCc1ccccc1)N1CCN(/[N+]([O-])=N\Oc2ccc([N+](=O)[O-])cc2[N+](=O)[O-])CC1	17 µM	Activity (786-0): 100%; GI50 [1]: 7.08 µM; LC50 [1]: 77.6 µM; TGI [1]: 30.9 µM; Activity (CAKI-1): 100%; Activity (TK-10): 100%
